Assay [1] addresses Maternal embryonic leucine zipper kinase (Homo sapiens, UniProt Q14680). As to the kind of experiment: Inhibition of MELK (unknown origin) containing kinase domain and UBA domain using STK S1 as substrate after 20 mins by HTRF assay. A general note: TR-FRET usually uses a lanthanide donor and a delayed reading to cut background.
Assay [2] has as its target Rho-associated protein kinase 2 (Homo sapiens, UniProt O75116). As to the kind of experiment: Inhibition of ROCK2 (unknown origin).

Chain of Maternal embryonic leucine zipper kinase (Q14680 whole entry, the tested form may be a part): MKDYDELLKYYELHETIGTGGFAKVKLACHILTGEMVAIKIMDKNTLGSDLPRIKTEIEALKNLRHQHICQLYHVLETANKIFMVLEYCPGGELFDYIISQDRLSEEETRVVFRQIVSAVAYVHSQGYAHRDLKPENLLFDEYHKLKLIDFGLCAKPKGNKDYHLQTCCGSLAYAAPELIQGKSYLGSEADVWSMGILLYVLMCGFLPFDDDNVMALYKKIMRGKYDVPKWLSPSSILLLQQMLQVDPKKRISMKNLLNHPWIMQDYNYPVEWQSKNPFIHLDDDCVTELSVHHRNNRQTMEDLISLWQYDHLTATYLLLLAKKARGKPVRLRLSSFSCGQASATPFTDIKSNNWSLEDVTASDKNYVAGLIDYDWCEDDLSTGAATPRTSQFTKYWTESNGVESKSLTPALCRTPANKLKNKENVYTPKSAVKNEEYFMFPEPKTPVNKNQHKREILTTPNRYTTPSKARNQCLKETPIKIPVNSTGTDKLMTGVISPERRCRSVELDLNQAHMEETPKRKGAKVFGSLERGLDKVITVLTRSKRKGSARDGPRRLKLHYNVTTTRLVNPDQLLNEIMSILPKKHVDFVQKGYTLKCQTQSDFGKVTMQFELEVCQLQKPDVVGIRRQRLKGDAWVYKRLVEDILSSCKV
Chain of Rho-associated protein kinase 2 (O75116 whole entry): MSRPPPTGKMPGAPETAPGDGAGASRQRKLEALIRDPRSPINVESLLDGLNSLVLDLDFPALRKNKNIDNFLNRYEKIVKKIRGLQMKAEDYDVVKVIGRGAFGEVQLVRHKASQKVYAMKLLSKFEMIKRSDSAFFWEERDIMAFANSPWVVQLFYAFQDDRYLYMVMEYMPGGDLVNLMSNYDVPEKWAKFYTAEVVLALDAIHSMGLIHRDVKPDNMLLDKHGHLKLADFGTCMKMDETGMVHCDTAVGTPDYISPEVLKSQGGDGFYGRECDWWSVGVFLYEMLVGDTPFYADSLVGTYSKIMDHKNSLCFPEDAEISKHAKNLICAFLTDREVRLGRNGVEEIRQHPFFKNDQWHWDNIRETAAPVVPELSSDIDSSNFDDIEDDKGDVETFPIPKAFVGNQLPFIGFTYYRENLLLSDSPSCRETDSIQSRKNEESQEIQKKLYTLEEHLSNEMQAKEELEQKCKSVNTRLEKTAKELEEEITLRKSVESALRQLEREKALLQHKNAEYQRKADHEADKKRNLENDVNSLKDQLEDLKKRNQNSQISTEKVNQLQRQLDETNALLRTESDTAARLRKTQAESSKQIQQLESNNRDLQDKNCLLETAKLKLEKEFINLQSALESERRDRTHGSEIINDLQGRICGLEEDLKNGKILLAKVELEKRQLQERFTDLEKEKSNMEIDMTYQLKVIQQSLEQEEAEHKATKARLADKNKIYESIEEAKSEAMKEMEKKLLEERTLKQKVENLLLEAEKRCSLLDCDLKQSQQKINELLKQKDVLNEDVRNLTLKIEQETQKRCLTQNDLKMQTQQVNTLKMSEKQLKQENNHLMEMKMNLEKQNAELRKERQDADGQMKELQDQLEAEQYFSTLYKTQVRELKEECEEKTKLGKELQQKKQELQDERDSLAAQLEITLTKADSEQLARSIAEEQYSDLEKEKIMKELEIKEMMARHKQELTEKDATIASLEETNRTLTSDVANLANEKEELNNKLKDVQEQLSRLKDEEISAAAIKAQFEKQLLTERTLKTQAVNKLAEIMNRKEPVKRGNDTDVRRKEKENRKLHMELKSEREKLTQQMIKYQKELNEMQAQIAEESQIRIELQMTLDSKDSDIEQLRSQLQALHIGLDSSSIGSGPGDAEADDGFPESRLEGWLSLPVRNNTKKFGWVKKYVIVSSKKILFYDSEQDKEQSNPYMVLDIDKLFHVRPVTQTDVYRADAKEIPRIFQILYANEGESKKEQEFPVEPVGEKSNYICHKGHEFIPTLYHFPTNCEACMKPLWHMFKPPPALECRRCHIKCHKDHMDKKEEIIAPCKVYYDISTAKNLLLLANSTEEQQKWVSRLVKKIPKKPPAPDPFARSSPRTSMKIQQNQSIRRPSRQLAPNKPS

In turn, `CNc1ncc(-c2ccc(C(=O)NCC(=O)Nc3ccccc3)cc2)c(OCC2CCNCC2)n1` gave a half-maximal inhibitory concentration (IC50) in assay [1] of 120 nM.
The same measure, in the same setting: next, `CNc1ncc(-c2ccc(C(=O)NCc3nc4ccccc4[nH]3)cc2)c(OCC2CCNCC2)n1`: 9.2 nM.
On to `COc1ccc2nc(CNC(=O)c3ccc(-c4cnccc4OCC4CCNCC4)cc3)[nH]c2c1`, for which the IC50 in assay [2] turned out to be 7800 nM; in assay [1], 1.5 nM.
Take `COc1ccc2nc(CNC(=O)c3ccc(-c4cnc(Nc5ccccc5)nc4OCC4CCNCC4)cc3)[nH]c2c1`: in assay [1], half-maximal inhibition (IC50) required 0.15 nM. In other words, the sub-nanomolar range.
`O=C(CNC(=O)c1ccc(-c2cnc(Nc3ccccc3)nc2OCC2CCNCC2)cc1)Nc1ccccc1` yielded a 50% inhibitory concentration (IC50) in assay [1] of 8.8 nM.
Still for that read-out and setting: then `O=C(NCc1nc2ccccc2[nH]1)c1ccc(-c2cnc(Nc3ccccc3)nc2OCC2CCNCC2)cc1`, with 1.1 nM; and `CNc1ncc(-c2ccc(C(=O)NCc3nc4ccc(OC)cc4[nH]3)cc2)c(OCC2CCNCC2)n1`, with 1.5 nM.
With `O=C(CNC(=O)c1ccc(-c2cnccc2OCC2CCNCC2)cc1)Nc1ccccc1`, the IC50 in assay [2] worked out at 360 nM; in assay [1], 740 nM.
For `O=C(NCc1nc2ccccc2[nH]1)c1ccc(-c2cnccc2OCC2CCNCC2)cc1`, in assay [1], the IC50 is 12 nM. This counts as double-digit nanomolar.

As a reminder, the IC50 is the concentration needed to halve the response being measured. A low value points to inhibition by little substance.
